Assay results published in patent US8084602B2, “Porphyrin derivatives and their use in photodynamic therapy” (Destiny Pharma Limited, priority 2002, dated 2011).

Experiments:
[1] = system: Pseudomonas aeruginosa ATCC 25668; assay: Range of antimicrobial activity (CFU protocol); assay type: cell-based
Protocol: (§1) For the further investigation of the exemplary compounds (Table 2), the following protocol was adopted: • (i) Bacteria (S. aureus BAA-44 and E. coli 25922) were grown in brain heart infusion (BHI) broth until they reached the stationary phase of growth. • (ii) The cells were harvested by centrifugation (3000 g for 15 min) with a table centrifuge, washed with 10 mM PBS at pH 7.4 containing 2.7 mM KCl and 0.14 M NaCl and suspended in PBS at an optical density of 0.7 at 650 nm corresponding to 10^8-10^9 cells/ml. • (iii) The bacteria, at the desired cell density (˜10^8 cells/ml) were incubated for 5 min in the dark with various concentrations of the exemplary compounds. • (iv) At the end of the incubation period the cells were washed three times with PBS, suspended in PBS, transferred into a 96-well microtitre plate (200 μl/well) and illuminated for 15 min with the Waldmann light source (15.2 mW/cm^2; 13.7 J/cm^2). The cells were illuminated from the bottom of the plate laying it on the glass cover of the lamp. • (v) After illumination, cell survival was determined by plating serially diluted aliquots of treated and untreated (i.e. no exemplary compound or light present) cells onto brain heart agar (BHA) and counting the number of colonies after 18-24 h incubation at 37° C.
(§2) The antibacterial activity of Compound 10 was tested against a range of bacterial strains: • S. aureus ATCC BAA-44 (a methicillin resistant S. aureus) • Ps. aeruginosa ATCC 25668 • S. epidermidis ATCC 700565 • Streptococcus pyogenes ATCC 49117 • E. coli ATCC 25922

[2] = system: Streptococcus pyogenes ATCC 49117; assay: Range of antimicrobial activity (CFU protocol); assay type: cell-based
Protocol: as §1, §2

[3] = system: Staphylococcus epidermidis ATCC 700565; assay: Range of antimicrobial activity (CFU protocol); assay type: cell-based
Protocol: as §1, §2

[4] = system: intact and abraded rat skin; assay: Acute dermal toxicity test (OECD 402); assay type: in vivo; conditions: 3.2 mM topical formulation, 24 hours
Protocol: The compound was applied to both intact and abraded rat skin for 24 hours.

[5] = system: human dermal fibroblast (NHDF) cells; assay: Quenching studies using sodium azide and D2O; assay type: cell-based; conditions: after illumination
Protocol: Triangle/solid line: Compound 10+PBS buffer+light; Squares/solid line: Compound 10+D2O+light; Circles/solid line: Compound 10+sodium azide+light; Triangles/dotted line: Compound 10+PBS buffer w/o light; Squares/dotted line: Compound 10+D2O w/o light; Circles/dotted line: Compound 10+sodium azide w/o light. (n=3, mean±Std).
Quenching studies using D2O and azide were performed with Compound 10 and light against keratinocytes in vitro. In order to investigate whether phototoxicity of the test compound against NHDF, NHEK and bacteria follows the photo-oxidation type II, sodium azide, a physical quencher of singlet oxygen as well as D2O an enhancer of reactive oxygen species were (Lin et al., 1991, Cancer Res. 51:1109-1116; Moan et al., 1979, Brit. J. Cancer 39:398-407).

[6] = system: S. aureus ATCC BAA-44; assay: Photodynamic activity against MRSA on ex vivo porcine skin; assay type: cell-based, Staphylococcus aureus; conditions: 10 μM applied 10 minutes, 15 minutes irradiation, mean of three target areas
Protocol: Excised porcine skin was cut into 3(4)×3(4) cm^2 pieces under sterile conditions and incubated in 70% ethanol for 5 minutes to reduce background of colonised bacteria. After three washing steps in PBS, the skin pieces were fixed in petri dishes with Hepes-Agar. The epidermis (stratum corneum) was then inoculated with S. aureus ATCC BAA-44 (˜10^8, Volume: 100 μl) and the skin surface dried under laminar flow cabinet until visible dry. The regions of interest were determined using a “pap” pen (1 cm^2 diameter). A sterile solution of Compound 10 (10 μM) was applied onto the skin for 10 minutes. Post application, the ex vivo porcine skin was placed under the Waldmann light source 236 and illuminated for 15 min (15.2 mW/cm^2, 13.7 J/cm^2). A colony forming unit assay was performed to determine viable bacterial cell number immediately after irradiation using a sterile cotton rod to remove bacteria from the stratum corneum. The sterile cotton rod was moistened in sampling solution (0.1% Tween80 in 0.0075 M phosphate buffer pH 7.9) before swabbing the skin surface (3 times) and vortexed in sampling solution before undertaking serial dilutions to determine the bacterial recovery.

[7] = system: Staphylococcus aureus BAA-44; assay: Emergence of bacterial resistance to PDT; assay type: cell-based; conditions: S. aureus ATCC BAA-44; ten subsequent photodynamic treatments
Protocol: The potential build up of resistance of the bacterial cells to the exemplary compounds of the invention was tested in the multi-drug resistant (including methicillin) gram positive bacterium Staphylococcus aureus BAA-44, using Compound 10 as the photodynamic agent. The survival of S. aureus BAA-44 after the second treatment was again compared to the survival of S. aureus BAA-44 cells that had not been treated with PDT. […] In an additional experiment, clones which had been exposed nine times to PDT treatment by the above methodology were treated for a tenth time and the results compared to the cell kill observed in a parallel experiment where naïve cultures (i.e. which had not been exposed to PDT) were subjected to PDT treatment under exactly the same conditions.
The results obtained from comparing cell kill contained from cultures that had been exposed to 10 consecutive PDT treatments with neïve cultures (i.e. which had not been exposed to PDT) are shown in FIG. 7. The survival was expressed as log N0/N, where N0 and N represent the number of CFU/ml of the untreated and treated cell suspensions.

`C[N+](C)(C)CCCOc1ccc(-c2c3nc(cc4ccc([nH]4)c(-c4ccc(OCCC[N+](C)(C)C)cc4)c4nc(cc5ccc2[nH]5)C=C4)C=C3)cc1.[Cl-].[Cl-]` [Compound 10, 5,15-bis-[4-(3-Trimethylammonio-propyloxy)-phenyl]-porphyrin dichloride] was tested, and the “Concentration of Compound 10 required to obtain a 3 log reduction in cells (μM)” value [1] was 5.0 μM, the “Concentration of Compound 10 required to obtain a 3 log reduction in cells (μM)” value [2] was 0.01 μM and the “Concentration of Compound 10 required to obtain a 3 log reduction in cells (μM)” value [3] was 0.0025 μM. The Histological toxicology [4] was “No Histological toxicology of any major organ (including the skin) was observed”, the “acute toxic or allergic effect” value [4] was “does not result in any acute toxic or allergic effect” and the clinical toxicology [4] was “no clinical toxicology was observed”. The “cell viability on addition of D2O” value ([5]; D2O) was “dramatic decrease”, the “Cell killing in the presence of sodium azide” value ([5]; sodium azide (50 mM)) was “reduced” and the growth reduction [6] was 3.2 log10. The development of resistance [7] was “no appreciable development of resistance”.
